In patent US8541447B2 (priority 2003, dated 2013):
Read-outs that look alike come from different tables or passages of the source.

Biological target: muscarinic M3 receptor (Homo sapiens (Human), UniProt P20309)
Type: binding

SMILES	ability to inhibit [3H]QNB binding at muscarinic sites	ability to inhibit [3H]QNB binding at muscarinic sites (human clonal line TE671/RD)
O=C(Nc1ccc(Br)cc1)OC1C2CCN(CC2)C1Cc1cccnc1 (centres unmarked) [Compound 1, 2-((3-pyridinyl)methyl)-1-azabicyclo[2.2.2]oct-3-yl N-(4-bromophenyl)carbamate]	None of the compounds was able to inhibit [^3H]QNB binding	
O=C(Nc1ccccc1)OC1C2CCN(CC2)C1Cc1cccnc1 (centres unmarked) [Compound 2, 2-((3-pyridinyl)methyl)-1-azabicyclo[2.2.2]oct-3-yl N-phenylcarbamate]	None of the compounds was able to inhibit [^3H]QNB binding	
COc1ccc(NC(=O)OC2C3CCN(CC3)C2Cc2cccnc2)cc1 (centres unmarked) [Compound 4, 2-((3-pyridinyl)methyl)-1-azabicyclo[2.2.2]oct-3-yl N-(4-methoxyphenyl)carbamate]	None of the compounds was able to inhibit [^3H]QNB binding	
O=C(NC1C2CCN(CC2)C1Cc1cccnc1)c1cc2ccccc2o1 (centres unmarked) [Compound 9, N-(2-((3-pyridinyl)methyl)-1-azabicyclo[2.2.2]oct-3-yl)benzofuran-2-carboxamide]		None of the compounds was able to inhibit [^3H]QNB binding
O=C(NC1C2CCN(CC2)C1Cc1cccnc1)c1ccc(Sc2ccccc2)cc1 (centres unmarked) [Compound 11]		None of the compounds was able to inhibit [^3H]QNB binding
